{"source": "the METLIN SMRT retention time set (Domingo-Almenara et al. 2019)", "test": "gradient 5% acetonitrile 3 min, to 50% in 2 min, to 85% in 15 min, held 3 min, 100 µL/min", "details": "column: Zorbax Extend-C18 2.1 x 50 mm; eluents: water / acetonitrile, 0.1% formic acid", "procedure,_shortened": "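Values are retention times taken from adduct peaks that software picked and an analyst inspected. The pure standards were run as mixtures of ~100 molecules on HPLC linked to a quadrupole time-of-flight mass spectrometer, in positive and negative ionization mode. A Zorbax Extend-C18 column (2.1 × 50 mm, 1.8 μm) was used at 100 μL/min with water and acetonitrile, each including 0.1% formic acid.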"}
{"smiles": "Cc1ccc(NC(=O)Cc2csc3nc(-c4ccccc4)cn23)c(Br)c1", "values": [{"measurement": "RP-LC retention time", "result": 872, "unit": "s"}]}
{"smiles": "O=C(CSc1cc(N2CCN(c3ccccc3F)CC2)ncn1)NCCC1=CCCCC1", "values": [{"measurement": "RP-LC retention time", "result": 1190, "unit": "s"}]}
{"smiles": "CCCCN1CC(c2nc3ccccc3n2CC(=O)N(c2ccccc2)C(C)C)CC1=O", "note": "(stereo unspecified)", "values": [{"measurement": "RP-LC retention time", "result": 792, "unit": "s"}]}
{"smiles": "COc1ccc(NC(=O)c2cc(C)n3nc(C)cc3n2)c(C)c1", "values": [{"measurement": "RP-LC retention time", "result": 1040, "unit": "s"}]}
{"smiles": "COc1ccc(C)cc1Nc1nc(C(=O)Nc2cccnc2)cs1", "values": [{"measurement": "RP-LC retention time", "result": 637, "unit": "s"}]}
{"smiles": "Cc1ccc(C2=NC3(CCN(C(=O)c4ccc(C(C)(C)C)cc4)CC3)ON2)cc1", "values": [{"measurement": "RP-LC retention time", "result": 975, "unit": "s"}]}
{"smiles": "COc1cccc2c1C(=O)c1c(O)c3c(c(O)c1C2=O)C[C@@](O)(C(C)=O)C[C@@H]3OC1CC(N(C)C)C(O)C(C)O1", "note": "(stereo partly specified)", "values": [{"measurement": "RP-LC retention time", "result": 666, "unit": "s"}]}
{"smiles": "COCCn1cc2c3c(cccc31)CN(C(=O)Cc1c(F)cccc1Cl)CC2", "values": [{"measurement": "RP-LC retention time", "result": 967, "unit": "s"}]}
{"smiles": "O=C(Cn1c(=O)n(C2CCCCC2)c2ncccc21)NCc1cccnc1", "values": [{"measurement": "RP-LC retention time", "result": 603, "unit": "s"}]}
{"smiles": "CC(C)CCN1CCC(N2CCN(S(=O)(=O)c3ccc(C(F)(F)F)cc3)CC2)C1=O", "note": "(stereo unspecified)", "values": [{"measurement": "RP-LC retention time", "result": 794, "unit": "s"}]}
{"smiles": "CC(C)NC(=O)c1ccc(OCC2CCN(C(=O)c3ccc(Cl)cc3)CC2)cc1", "values": [{"measurement": "RP-LC retention time", "result": 918, "unit": "s"}]}
{"smiles": "O=C(Cn1nc2c(Oc3ccc(F)cc3)nccn2c1=O)NCc1ccccc1", "values": [{"measurement": "RP-LC retention time", "result": 770, "unit": "s"}]}
{"smiles": "O=C(NCCc1csc(C2CCCN(C(=O)C3CCCCC3)C2)n1)C1CC1", "note": "(stereo unspecified)", "values": [{"measurement": "RP-LC retention time", "result": 760, "unit": "s"}]}
{"smiles": "COCCNC(=O)c1nn(-c2ccc(F)cc2)nc1CO", "values": [{"measurement": "RP-LC retention time", "result": 730, "unit": "s"}]}
{"smiles": "C=CC(=O)Nc1ccc2ncnc(Nc3ccc(OCc4cccc(F)c4)c(Cl)c3)c2c1", "values": [{"measurement": "RP-LC retention time", "result": 825, "unit": "s"}]}
{"smiles": "COc1ccc2c(c1)C1(CCN(C(=O)Cc3cccc(F)c3)C1)C(=O)N2", "note": "(stereo unspecified)", "values": [{"measurement": "RP-LC retention time", "result": 740, "unit": "s"}]}
{"smiles": "CCCS(=O)(=O)N1CCC(F)(F)C(COCc2cccnc2)C1", "note": "(stereo unspecified)", "values": [{"measurement": "RP-LC retention time", "result": 656, "unit": "s"}]}
{"smiles": "CCOC(=O)C(C)NC(=O)N1CCN(Cc2nc3cccnc3n2-c2ccc(CC)cc2)CC1", "note": "(stereo unspecified)", "values": [{"measurement": "RP-LC retention time", "result": 659, "unit": "s"}]}
{"smiles": "COc1ccc(OC)c(NC(=O)N2CCC3(CC2)N=C(c2ccc(Cl)cc2)C(=O)N3)c1", "values": [{"measurement": "RP-LC retention time", "result": 922, "unit": "s"}]}
{"smiles": "CCC(C)c1ccc(NC(=O)C2CCN(C(=O)C(C)(C)C)CC2)cc1", "note": "(stereo unspecified)", "values": [{"measurement": "RP-LC retention time", "result": 983, "unit": "s"}]}
{"smiles": "COC(=O)c1cccc(NC(=O)CSc2cc(N3CCN(c4ccc(OC)cc4)CC3)ncn2)c1", "values": [{"measurement": "RP-LC retention time", "result": 905, "unit": "s"}]}
